{"source": "paper PMC5896266", "about": "“Development of Matrix Metalloproteinase-2 Inhibitors for Cardioprotection” (Frontiers in Pharmacology, 2018)", "key": {"MMP-13": {"target": "MMP-13 (Homo sapiens, UniProt P45452)", "experiment": "MMP-13 inhibition (inhibitory profile)", "type": "biochemical", "conditions": "Table 2", "experimental": "The compounds were measured for MMP-1, 2, 9, 13 to determine their inhibitory profile. Efficiency Index amplifies the two major required effects, selectivity against MMP-1 and the inhibitory activity."}, "[1]": {"target": "T1, MMP-2 enzyme isolated from rat heart (Rattus norvegicus, UniProt P33436)", "T1 construct": "we used full-length, active MMP-2 enzymes isolated from healthy young adult rat hearts; from tissue; host or cells: rat heart homogenate (healthy young adult rats)", "T1 sequence (P33436 110-662)": "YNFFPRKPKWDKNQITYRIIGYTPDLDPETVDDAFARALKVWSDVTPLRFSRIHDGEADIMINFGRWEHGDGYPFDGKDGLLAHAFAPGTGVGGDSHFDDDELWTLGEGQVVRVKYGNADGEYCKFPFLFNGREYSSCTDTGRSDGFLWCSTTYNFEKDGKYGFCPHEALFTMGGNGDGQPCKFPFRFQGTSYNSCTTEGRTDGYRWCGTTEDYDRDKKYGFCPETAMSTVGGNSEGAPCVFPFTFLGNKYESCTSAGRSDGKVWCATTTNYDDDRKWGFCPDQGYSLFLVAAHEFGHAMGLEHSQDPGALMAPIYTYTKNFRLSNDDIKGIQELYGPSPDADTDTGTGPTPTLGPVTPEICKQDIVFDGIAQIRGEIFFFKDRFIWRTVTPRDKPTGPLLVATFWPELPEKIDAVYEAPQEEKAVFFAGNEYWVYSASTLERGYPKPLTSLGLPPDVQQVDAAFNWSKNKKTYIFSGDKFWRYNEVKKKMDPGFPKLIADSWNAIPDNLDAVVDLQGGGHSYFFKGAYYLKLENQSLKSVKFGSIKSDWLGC", "experiment": "Gelatin zymography on cardiac MMP-2", "type": "biochemical", "experimental": "Gelatin zymography was performed as described previously (Kupai et al., [2010]; Bencsik et al., [2017]). MMP-2 was isolated from rat heart homogenates as follows: 50 μg protein/lane were loaded and separated by electrophoresis under non-reducing conditions on an 8% SDS-polyacrylamide gels copolymerized with 2 mg/ml gelatin from porcine skin (Sigma-Aldrich; St. Louis, MO). After electrophoresis, gels were washed in 2.5% Triton-X 100 with gentle agitation and then incubated for 20 h at 37°C in zymography development buffer (50 mM Tris-HCl, pH 7.5, containing 5 mM CaCl2, 200 mM NaCl) in the presence or abscence of the MMP inhibitor compounds. Zymographic gels were stained in a 0.05% Coomassie Brilliant Blue R-250 solution followed by destaining, and then zymograms were scanned. MMP activity was detected as a colorless transparent zone on a blue background and the clear bands in the gel were quantified by densitometry using the Quantity One software (Bio-Rad, Hercules, CA). The obtained density values were measured and percentage of inhibition values were then calculated.\nTo confirm the MTS screen results, we tested the potential MMP inhibitor molecules on MMP-2 enzyme isolated from rat heart in vitro. Therefore, we applied the MMPIs at 1 and 100 μM final concentration in the enzyme's development buffer (Table 3).\nAfter the chemical optimization of the novel MMP inhibitor lead candidates, we determined their IC50 values by using gelatin zymography. During zymographic analysis, we used full-length, active MMP-2 enzymes isolated from healthy young adult rat hearts. Subsequently, the cardio-cytoprotective effects of the selected candidates having the lowest IC50 values to MMP-2 were tested in cultured neonatal cardiac myocytes subjected to simulated I/R injury. Cardiac myocyte cell culture assay allowed a relatively high throughput biological efficacy testing (Gorbe et al., [2010]) of the selected lead candidates in several dose ranges at different levels of inhibition of MMP-2 activity."}, "[2]": {"tested_on": "neonatal rat cardiac myocytes", "experiment": "Cell viability of neonatal rat cardiac myocytes subjected to simulated ischemia/reperfusion", "type": "cell-based", "conditions": "comparison among the tested lead candidates", "experimental": "For our cell viability experiments, 3 day-old cardiomyocytes plated onto 24-well plates were tested under normoxic condition or subjected to simulated ischemia (SI). The normoxic cardiomyocytes were kept under normoxic conditions, i.e., the growth medium was changed to a normoxic solution (in mM: NaCl 125, KCl 5.4, NaH2PO4 1.2, MgCl2 0.5, HEPES 20, glucose 15, taurine 5, CaCl2 1, creatine 2.5, BSA 0.1%, pH 7.4, 310 mOsm/l) (Li et al., [2004]) and the cells were incubated under 95% air and 5% CO2 at 37°C for 2.5 h. […] The cells were then subjected to the following treatments during SI or normoxic protocol: vehicle control or MMP inhibitors at different doses calculated according to IC doses in vitro. […]\nFigure 3 Experimental protocol for cell culture studies and for the ex vivo rat heart model of AMI. […] At the end of the reperfusion, cell viability was determined by using calcein flurescence. […] Subsequently, 2 h reperfusion was applied and then infarct size was determined. […]\nCell viability was assessed by a calcein and propidium iodine assay performed in each group after 2 h reoxygenation. […] Then the calcein solution was replaced with fresh PBS and the fluorescence intensity of each well was detected by a fluorescent plate reader (FluoStar Optima, BMG Labtech, Ortenberg, Germany). […]"}}}
{"molecule": "O=C(O)c1c[nH]c(CN(Cc2ccc(F)cc2)Cc2ccc(OCc3ccccc3)cc2)n1", "note": "[MMPI-1154]", "values": [{"measurement": "IC50", "setting": "MMP-13", "value": 1.8, "unit": "µM"}, {"measurement": "inhibition at 100 µM", "setting": "[1]; 100 μM, cardiac MMP-2, gelatin zymography, read-out: Inhibition (%)±SEM at 100 μM final MMP inhibitor concentration", "value": 100, "unit": "%"}, {"measurement": "EC50", "setting": "[1]; concentration labelled EC50 in Supplementary Figure 4, doses calculated according to IC doses in vitro", "value": 2.5, "unit": "µM"}, {"measurement": "IC20", "setting": "[1]; concentration used in the ex vivo model, read-out: IC20 value (MMP-2 inhibition)", "value": 1, "unit": "µM"}, {"measurement": "IC50", "setting": "[1]; most effective concentration in cell culture experiments, read-out: IC50 value (MMP-2 inhibition)", "value": 2.5, "unit": "µM"}, {"measurement": "increase in cell viability during simulated I/R", "setting": "[2]", "value": "highest increase in cell viability"}]}
